Assay results reported in patent US9688710B2, “Inhibitors of sodium glucose cotransporter 1” (LEXICON PHARMACEUTICALS, INC., priority 2012, dated 2017).

Key:
[1] = biological target: Human sodium/glucose co-transporter type 1 (SGLT1) (Homo sapiens (Human), UniProt P13866); assay: In vitro human SGLT1 inhibition assay (14C-AMG uptake); type: cell-based; design: key to SGLT1 (human SGLT1 IC50): ***: a value less than 0.01 μM; **: a value less than 0.1 μM; *: a value less than 1 μM; —: a value not measured or exceeding μM; settings: HEK293 cells expressing human HA-SGLT1, 14C-AMG uptake
Description: Human sodium/glucose co-transporter type 1 (SGLT1; accession number NP_000334; GI: 4507031) was cloned into pIRESpuro2 vector for mammalian expression (construct: HA-SGLT1-pIRESpuro2).
HEK293 cells were transfected with the human HA-SGLT1-pIRESpuro2 vector and the bulk stable cell line was selected in presence of 0.5 μg/mL of puromycin. Human HA-SGLT1 cells were maintained in DMEM media containing 10% FBS, 1% GPS and 0.5 μg/mL of puromycin.
The HEK293 cells expressing the human HA-SGLT1 were seeded in 384 well plates (30,000 cells/well) in DMEM media containing 10% FBS, 1% GPS and 0.5 μg/mL of puromycin, then incubated overnight at 37 C, 5% CO2. Cells were then washed with uptake buffer (140 mM NaCl, 2 mM KCl, 1 mM CaCl2, 1 mM MgCl2, 10 mM HEPES, 5 mM Tris, 1 mg/mL bovine serum albumin (BSA), pH 7.3). Twenty microliters of uptake buffer with or without testing compounds were added to the cells. Then, 20 microliters of uptake buffer containing ^14C-AMG (100 nCi) were also added to cells. The cell plates were incubated at 37° C., 5% CO2 for 1-2 hours. After washing the cells with uptake buffer, scintillation fluid was added (40 microliters/well) and ^14C-AMG uptake was measured by counting radioactivity using a scintillation coulter (TopCoulter NXT; Packard Instruments).

[2] = biological target: Human sodium/glucose co-transporter type 2 (SGLT2) (Homo sapiens (Human), UniProt P31639); assay: In vitro human SGLT2 inhibition assay (14C-AMG uptake); type: cell-based; settings: HEK293 cells expressing human HA-SGLT2, 14C-AMG uptake
Description: Human sodium/glucose co-transporter type 2 (SGLT2; accession number P31639; GI:400337) was cloned into pIRESpuro2 vector for mammalian expression (construct: HA-SGLT2-pIRESpuro2).
HEK293 cells were transfected with the human HA-SGLT2-pIRESpuro2 vector and the bulk stable cell line was selected in presence of 0.5 μg/mL of puromycin. Human HA-SGLT2 cells were maintained in DMEM media containing 10% FBS, 1% GPS and 0.5 μg/mL of puromycin.
The HEK293 cells expressing the human HA-SGLT2 were seeded in 384 well plates (30,000 cells/well) in DMEM media containing 10% FBS, 1% GPS and 0.5 μg/mL of puromycin, then incubated overnight at 37 C, 5% CO2. Cells were then washed with uptake buffer (140 mM NaCl, 2 mM KCl, 1 mM CaCl2, 1 mM MgCl2, 10 mM HEPES, 5 mM Tris, 1 mg/mL bovine serum albumin (BSA), pH 7.3). Twenty microliters of uptake buffer with or without testing compounds were added to the cells. Then, 20 microliters of uptake buffer containing ^14C-AMG (100 nCi) were added to the cells. The cell plates were incubated at 37° C., 5% CO2 for 1-2 hours. After washing the cells with uptake buffer, scintillation fluid was added (40 microliters/well) and ^14C-AMG uptake was measured by counting radioactivity using a scintillation coulter (TopCoulter NXT; Packard Instruments).

Sequence of Human sodium/glucose co-transporter type 1 (SGLT1) (P13866 whole entry): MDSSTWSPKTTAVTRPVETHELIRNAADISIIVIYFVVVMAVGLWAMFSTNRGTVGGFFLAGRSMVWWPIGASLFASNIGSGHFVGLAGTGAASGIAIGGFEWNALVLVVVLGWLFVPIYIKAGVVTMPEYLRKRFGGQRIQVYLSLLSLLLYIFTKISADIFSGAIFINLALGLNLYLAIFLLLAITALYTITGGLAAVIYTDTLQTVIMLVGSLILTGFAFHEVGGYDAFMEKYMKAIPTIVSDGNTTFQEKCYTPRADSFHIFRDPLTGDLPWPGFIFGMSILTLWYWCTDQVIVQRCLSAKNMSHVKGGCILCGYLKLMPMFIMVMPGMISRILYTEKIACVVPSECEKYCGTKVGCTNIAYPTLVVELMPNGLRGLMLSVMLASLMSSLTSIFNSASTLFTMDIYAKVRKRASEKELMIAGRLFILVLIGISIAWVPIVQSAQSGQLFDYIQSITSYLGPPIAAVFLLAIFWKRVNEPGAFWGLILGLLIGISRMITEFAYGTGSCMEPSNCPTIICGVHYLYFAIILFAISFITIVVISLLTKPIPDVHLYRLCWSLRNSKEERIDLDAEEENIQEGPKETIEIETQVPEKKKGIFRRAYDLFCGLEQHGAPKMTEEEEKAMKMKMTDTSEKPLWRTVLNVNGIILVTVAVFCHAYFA
Sequence of Human sodium/glucose co-transporter type 2 (SGLT2) (P31639 whole entry): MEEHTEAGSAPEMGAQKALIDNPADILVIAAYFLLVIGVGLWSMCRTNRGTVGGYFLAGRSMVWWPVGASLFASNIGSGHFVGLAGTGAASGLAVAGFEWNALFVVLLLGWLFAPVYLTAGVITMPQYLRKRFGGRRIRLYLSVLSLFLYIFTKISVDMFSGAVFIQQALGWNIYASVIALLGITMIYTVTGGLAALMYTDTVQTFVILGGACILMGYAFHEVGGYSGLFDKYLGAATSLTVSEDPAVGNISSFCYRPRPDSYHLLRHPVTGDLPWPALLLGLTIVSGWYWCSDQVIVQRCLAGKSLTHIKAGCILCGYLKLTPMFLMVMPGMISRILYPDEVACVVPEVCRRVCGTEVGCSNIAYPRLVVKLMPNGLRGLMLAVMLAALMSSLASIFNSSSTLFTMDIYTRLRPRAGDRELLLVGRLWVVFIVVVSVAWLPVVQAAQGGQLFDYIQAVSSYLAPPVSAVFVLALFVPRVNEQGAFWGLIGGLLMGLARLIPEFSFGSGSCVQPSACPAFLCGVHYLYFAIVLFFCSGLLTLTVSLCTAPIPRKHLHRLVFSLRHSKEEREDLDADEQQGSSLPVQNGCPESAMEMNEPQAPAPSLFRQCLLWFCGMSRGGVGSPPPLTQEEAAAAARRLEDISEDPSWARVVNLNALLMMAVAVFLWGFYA

Row | Structure (SMILES) | IC50 [1] [nM] | IC50 [2] [nM] | SGLT1 (human SGLT1 IC50) [1]
1 | CS[C@H]1O[C@@H](c2ccc(C)c(Cc3ccc(CCCC(=O)NCCN(CCNC(=O)CCCc4ccc(Cc5cc([C@@H]6O[C@H](SC)[C@@H](O)[C@H](O)[C@H]6O)ccc5C)cc4)CCNC(=O)CCCc4ccc(Cc5cc([C@@H]6O[C@H](SC)[C@@H](O)[C@H](O)[C@H]6O)ccc5C)cc4)cc3)c2)[C@H](O)[C@@H](O)[C@@H]1O [(S,R,S,R,R,S,R,S,R,R)-N,N′,N″-(nitrilotris(ethane-2,1-diyl))tris(4-(4-(2-methyl-5-((2S,3R,4R,5S,6R)-3,4,5-trihydroxy-6-(methylthio)tetrahydro-2H-pyran-2-yl)benzyl)phenyl)butanamide)] | < 100 | < 10 | 
2 | CS[C@H]1O[C@@H](c2ccc(C)c(Cc3ccc(CCCCCCC(=O)NC(CO)(CO)CO)cc3)c2)[C@H](O)[C@@H](O)[C@@H]1O [N-(1,3-dihydroxy-2-(hydroxymethyl)propan-2-yl)-7-(4-(2-methyl-5-((2S,3R,4R,5S,6R)-3,4,5-trihydroxy-6-(methylthio)tetrahydro-2H-pyran-2-yl)benzyl)phenyl)heptanamide] | < 100 | < 10 | 
3 | CS[C@H]1O[C@@H](c2ccc(C)c(Cc3ccc(Cl)cc3)c2)[C@H](O)[C@@H](O)[C@@H]1O [(2S,3R,4R,5S,6R)-2-(3-(4-chlorobenzyl)-4-methylphenyl)-6-(methylthio)tetrahydro-2H-pyran-3,4,5-triol] | < 100 | < 10 | 
4 | CS[C@H]1O[C@@H](c2ccc(Cl)c(Cc3ccc(OCCCNC(=O)NC(C)(C)C(N)=O)cc3)c2)[C@H](O)[C@@H](O)[C@@H]1O [2-(3-(3-(4-(2-chloro-5-((2S,3R,4R,5S,6R)-3,4,5-trihydroxy-6-(methylthio)tetrahydro-2H-pyran-2-yl)benzyl)phenoxy)propyl)ureido)-2-methylpropanamide] | < 10 | < 10 | 
5 | CS[C@H]1O[C@@H](c2ccc(C)c(Cc3ccc(CCCCC(=O)NC(C)(C)CO)cc3)c2)[C@H](O)[C@@H](O)[C@@H]1O [N-(1-hydroxy-2-methylpropan-2-yl)-5-(4-(2-methyl-5-((2S,3R,4R,5S,6R)-3,4,5-trihydroxy-6-(methylthio)tetrahydro-2H-pyran-2-yl)benzyl)phenyl)pentanamide] | < 10 | < 10 | 
6 | CS[C@H]1O[C@@H](c2ccc(C)c(Cc3ccc(CCCC(=O)NCC(C)(C)C(=O)N(C)CCN(C)C)cc3)c2)[C@H](O)[C@@H](O)[C@@H]1O [N-(3-((2-(dimethylamino)ethyl)(methyl)amino)-2,2-dimethyl-3-oxopropyl)-4-(4-(2-methyl-5-((2S,3R,4R,5S,6R)-3,4,5-trihydroxy-6-(methylthio)tetrahydro-2H-pyran-2-yl)benzyl)phenyl)butanamide] |  | < 100 | —
7 | CS[C@H]1O[C@@H](c2ccc(C)c(Cc3ccc(OCC(O)CO)cc3)c2)[C@H](O)[C@@H](O)[C@@H]1O (stereo partly drawn) [(2S,3R,4R,5S,6R)-2-(3-(4-(2,3-dihydroxypropoxy)benzyl)-4-methylphenyl)-6-(methylthio)tetrahydro-2H-pyran-3,4,5-triol] | < 100 | < 100 | 
8 | CS[C@H]1O[C@@H](c2ccc(C)c(Cc3ccc(OCCNC4(C(N)=O)CCCC4)cc3)c2)[C@H](O)[C@@H](O)[C@@H]1O [1-((2-(4-(2-methyl-5-((2S,3R,4R,5S,6R)-3,4,5-trihydroxy-6-(methylthio)tetrahydro-2H-pyran-2-yl)benzyl)phenoxy)ethyl)amino)cyclopentanecarboxamide] | < 100 | < 10 | 
9 | CS[C@H]1O[C@@H](c2ccc(C)c(Cc3ccc(CCCCN)cc3)c2)[C@H](O)[C@@H](O)[C@@H]1O [(2S,3R,4R,5S,6R)-2-(3-(4-(4-aminobutyl)benzyl)-4-methylphenyl)-6-(methylthio)tetrahydro-2H-pyran-3,4,5-triol] | < 10 | < 10 | 
10 | CS[C@H]1O[C@@H](c2ccc(C)c(Cc3ccc(OCCCC(N)=O)cc3)c2)[C@H](O)[C@@H](O)[C@@H]1O [4-(4-(2-methyl-5-((2S,3R,4R,5S,6R)-3,4,5-trihydroxy-6-(methylthio)tetrahydro-2H-pyran-2-yl)benzyl)phenoxy)butanamide] | < 100 | < 10 | 
11 | CS[C@H]1O[C@@H](c2ccc(C)c(Cc3ccc(CCCC(=O)NC(C)(C)C(=O)O)cc3)c2)[C@H](O)[C@@H](O)[C@@H]1O [2-methyl-2-(4-(4-(2-methyl-5-((2S,3R,4R,5S,6R)-3,4,5-trihydroxy-6-(methylthio)tetrahydro-2H-pyran-2-yl)benzyl)phenyl)butanamido)propanoic acid] | < 100 | < 10 | 
12 | CS[C@H]1O[C@@H](c2ccc(Cl)c(Cc3ccc(OCC(=O)O)cc3)c2)[C@H](O)[C@@H](O)[C@@H]1O [2-(4-(2-chloro-5-((2S,3R,4R,5S,6R)-3,4,5-trihydroxy-6-(methylthio)tetrahydro-2H-pyran-2-yl)benzyl)phenoxy)acetic acid] | < 1000 | < 100 | 
13 | CS[C@H]1O[C@@H](c2ccc(C)c(Cc3ccc(CCCCNCC(O)CO)cc3)c2)[C@H](O)[C@@H](O)[C@@H]1O (stereo partly drawn) [(2S,3R,4R,5S,6R)-2-(3-(4-(4-((2,3-dihydroxypropyl)amino)butyl)benzyl)-4-methylphenyl)-6-(methylthio)tetrahydro-2H-pyran-3,4,5-triol] | < 100 | < 10 | 
14 | CS[C@H]1O[C@@H](c2ccc(C)c(Cc3ccc(OCCCC(=O)NCC(N)=O)cc3)c2)[C@H](O)[C@@H](O)[C@@H]1O [N-(2-amino-2-oxoethyl)-4-(4-(2-methyl-5-((2S,3R,4R,5S,6R)-3,4,5-trihydroxy-6-(methylthio)tetrahydro-2H-pyran-2-yl)benzyl)phenoxy)butanamide] | < 100 | < 10 | 
15 | CS[C@H]1O[C@@H](c2ccc(Cl)c(Cc3ccc(OCCNC(=O)N4CCN(C)CC4)cc3)c2)[C@H](O)[C@@H](O)[C@@H]1O [N-(2-(4-(2-chloro-5-((2S,3R,4R,5S,6R)-3,4,5-trihydroxy-6-(methylthio)tetrahydro-2H-pyran-2-yl)benzyl)phenoxy)ethyl)-4-methylpiperazine-1-carboxamide] | < 10 | < 10 | 
16 | CS[C@H]1O[C@@H](c2ccc(C)c(Cc3ccc(CCCC(=O)NCCCN(C)CCCNC(=O)CCCc4ccc(Cc5cc([C@@H]6O[C@H](SC)[C@@H](O)[C@H](O)[C@H]6O)ccc5C)cc4)cc3)c2)[C@H](O)[C@@H](O)[C@@H]1O [(S,R,S,R,R)-N,N′-((methylazanediyl)bis(propane-3,1-diyl))bis(4-(4-(2-methyl-5-((2S,3R,4R,5S,6R)-3,4,5-trihydroxy-6-(methylthio)tetrahydro-2H-pyran-2-yl)benzyl)phenyl)butanamide)] | < 10 | < 10 | 
17 | CS[C@H]1O[C@@H](c2ccc(C)c(Cc3ccc(OCCCC(=O)NC(C)(C)C(=O)O)cc3)c2)[C@H](O)[C@@H](O)[C@@H]1O [2-methyl-2-(4-(4-(2-methyl-5-((2S,3R,4R,5S,6R)-3,4,5-trihydroxy-6-(methylthio)tetrahydro-2H-pyran-2-yl)benzyl)phenoxy)butanamido)propanoic acid] | < 10 | < 10 | 
18 | CS[C@H]1O[C@@H](c2ccc(C)c(Cc3ccc(CCCC(=O)NC(C)(C)C(=O)N4CCC(C)CC4)cc3)c2)[C@H](O)[C@@H](O)[C@@H]1O [N-(2-methyl-1-(4-methylpiperidin-1-yl)-1-oxopropan-2-yl)-4-(4-(2-methyl-5-((2S,3R,4R,5S,6R)-3,4,5-trihydroxy-6-(methylthio)tetrahydro-2H-pyran-2-yl)benzyl)phenyl)butanamide] | < 10 | < 10 | 
